Measured values as given in ChEMBL document CHEMBL1201862, “PubChem BioAssay data set” (2004).
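Cells were grown in 96-well plates and exposed to each compound for 48 hours at five concentrations; endpoints were interpolated linearly between bracketing concentrations, or set to the highest concentration if not reached. Here, GI50 denotes the concentration required for 50% inhibition of growth.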 Active and inactive are the calls of the source. Cut-off read from the data, not from the text of the source: active = GI50 up to about 1.1 µM and inactive = higher.

What was measured:
Test in all cases: growth of human tumour cells (NCI), 48 h
[1] = system: UACC-62
[2] = system: PC-3
[3] = system: Malme-3M
[4] = system: U-251
[5] = system: DU-145
[6] = system: SK-MEL-5
[7] = system: SN12C
[8] = system: K562
[9] = system: SK-MEL-28
[10] = system: SF-295
[11] = system: UO-31
[12] = system: TK-10
[13] = system: MDA-MB-231
[14] = system: COLO 205
[15] = system: SNB-75
[16] = system: UACC-257
[17] = system: OVCAR-4
[18] = system: NCI-H226
[19] = system: SNB-19
[20] = system: OVCAR-5

Measured: GI50

ClC1=C(Cc2ccccc2)Cc2ccc3c(c21)CCC3
inactive: [1] 27.6 µM | [2] 32.3 µM | [3] 24.2 µM | [4] 19.1 µM | [5] 48.5 µM | [6] 20.8 µM | [7] 34.4 µM | [8] 31.1 µM | [9] 66.5 µM | [10] 29.4 µM | [11] 21.8 µM | [12] 72.3 µM | [13] 21.8 µM | [14] 13.4 µM | [15] > 10 µM | [16] 23.1 µM | [17] 9.23 µM | [18] 23 µM | [19] 21.5 µM | [20] 61.2 µM

CN(Cc1cnc2nc(N)nc(N)c2n1)c1ccc(C(=O)NC(CCC(=O)NCCC(P(=O)(O)O)P(=O)(O)O)C(=O)O)cc1 (stereo not given)
inactive: [1] 28.4 µM | [2] 1.79 µM | [3] > 35.8 µM | [4] 25.9 µM | [5] 21.2 µM | [6] 43.4 µM | [7] 11 µM | [8] 1.47 µM | [9] > 100 µM | [10] 18.7 µM | [11] 22 µM | [12] > 100 µM | [13] > 100 µM | [14] > 82.6 µM | [15] > 100 µM | [16] > 100 µM | [17] > 100 µM | [18] > 89.7 µM | [19] > 87.7 µM | [20] 25.1 µM

Cc1ccc(Cc2nn(C)c(=O)n2-n2cccc2)cc1
inactive: [1] > 100 µM | [2] > 100 µM | [3] > 100 µM | [4] > 100 µM | [5] > 100 µM | [6] > 100 µM | [7] > 100 µM | [8] > 100 µM | [9] > 100 µM | [10] > 100 µM | [11] > 100 µM | [12] > 100 µM | [13] > 100 µM | [14] > 100 µM | [15] > 100 µM | [16] 56.8 µM | [17] > 100 µM | [18] > 100 µM | [19] > 100 µM | [20] > 100 µM

N#CCCN(CCNc1ccccc1)C(=O)Nc1ccc(NC(=O)N(CCC#N)CCNc2ccccc2)cc1
inactive: [1] > 100 µM | [2] > 93.1 µM | [3] > 100 µM | [4] > 100 µM | [5] > 92.9 µM | [6] > 100 µM | [7] > 100 µM | [8] > 100 µM | [9] > 94.8 µM | [10] > 74.6 µM | [11] > 100 µM | [12] > 61.4 µM | [13] > 100 µM | [14] > 100 µM | [15] 26.2 µM | [16] > 100 µM | [17] 24.7 µM | [18] > 73.5 µM | [19] > 100 µM | [20] > 100 µM

N=C1N(c2ccccc2)C(=S)/C(=N/c2ccccc2)N1c1ccccc1
inactive: [1] 5.77 µM | [2] 10.2 µM | [3] 13.4 µM | [4] 14.2 µM | [5] 17.4 µM | [6] 2.38 µM | [7] 13.3 µM | [8] 2.45 µM | [9] 16.8 µM | [10] 16.6 µM | [11] 6.28 µM | [12] 15 µM | [13] 8.73 µM | [14] 3.3 µM | [15] 15.9 µM | [16] 2.55 µM | [17] 12.7 µM | [18] 20.2 µM | [19] 16.6 µM | [20] 15.6 µM

Cc1ccc(/N=N/c2c(O)ccc3cc(S(=O)(=O)O)ccc23)cc1
inactive: [1] > 100 µM | [2] > 100 µM | [3] > 100 µM | [4] > 100 µM | [5] > 100 µM | [6] > 100 µM | [7] > 100 µM | [8] > 100 µM | [9] > 100 µM | [10] > 100 µM | [11] > 100 µM | [12] > 100 µM | [13] 18.8 µM | [14] 73.5 µM | [15] 34.8 µM | [16] > 100 µM | [17] > 100 µM | [18] > 100 µM | [19] > 100 µM | [20] > 100 µM
